Data from PMC7215935, “GM1 Oligosaccharide Crosses the Human Blood–Brain Barrier In Vitro by a Paracellular Route” (International Journal of Molecular Sciences, 2020).

Experiments:
[1] = system: human brain-like endothelial cells (hBLECs); experiment: Direct transport (apical to basolateral, A → B) across the hBLEC monolayer: Pe and Papp; assay type: in vitro ADME; details: 300 μM apical, after 240 min
[2] = system: TrkA-ERK1/2 pathway; experiment: TrkA-ERK1/2 pathway activation in N2a cells (immunoblotting); assay type: cell-based, mouse; details: basolateral solution
Experimental: Precisely, [^3H]OligoGM1 (1 × 10^6 dpm) diluted into cold OligoGM1 solution (300 µM) was administered for 240 min to hBLECs in the upper compartment so that at a volume of 0.5 mL there was 150 nmol of OligoGM1. […] After the 240 min incubation period, the basolateral solution was screened to find the quantity of crossed OligoGM1 by measuring ^3H-radioactivity and was then administered to N2a cells for 24 h. For control cells, we administered a basolateral solution derived from hBLECs incubated with Transfectagro without OligoGM1. Morphological signals of neurodifferentiation were evaluated by cell observation and TrkA-ERK1/2 pathway activation was verified by immunoblotting (for procedural details see Supplementary Materials and [22, 23]).
Caco-2 cells are not listed as commonly misidentified cell line by the International Cell Line Authentication Committee. However it is reported that culture condition and cell origin can deeply affect Caco-2 morphology and behavior [4-6]. […]
Since mycoplasma could infect of Caco-2 cells, we validated the absence of any contamination by two methods (data not shown). […] Briefly culture supernatants were mixed with MycoAlert reagents according to manufacturer instruction and the luminescence was measured after 10 min using fluorimeter (BioTek, H1, Vermont, Winooski). […]
It is calculated according to the equation (1): […]

[3] = system: MRPs; experiment: ABC transporter competition assay (Caco-2 pump out), CMFDA efflux; details: Caco-2 cells, 10, 50 and 100 μM, vs control
Experimental: Briefly, Caco-2 cells in 96-well plates were washed once with RH buffer and incubated for 120 min with 10 µM R123 or for 15 min with 0.5 µM CMFDA. R123 and CMFD are substrates for the major efflux pumps expressed by BBB and intestine cells, i.e., P-gp/BCRP and MRPs, respectively. After the incubation period, Caco-2 cells were washed twice with RH buffer with or without test compounds (OligoGM1 at 10, 50, and 100 µM). The rate out (Kout) of Caco-2 cells for fluorescent dyes was monitored by fluorescence measurement (λex = 501 nm and λem = 538 nm for R123; λex = 485 nm and λem = 538 nm for CMFDA) using a microplate fluorescent reader (BioTek, H1, Vermont, Winooski). The amount of dye expelled from the cells was measured at 37 °C and every 5 min for one hour for R123 and every 2 min for 30 min for CMFDA. The rate out of the dye from cells was calculated as the slope of the curve of the cumulative amount of dye against the time (Kout = ∆pmol⁄∆t) and compared with the value in the presence of test compounds.

[4] = system: hBLECs; experiment: Toxicity on hBLECs / monolayer integrity by LY permeability in combination with test substance; assay type: cell-based, human; details: 10, 50, 100 and 300 μM with 50 μM LY, 60 min and over time (20, 40, 60 min)
Experimental: Prior to the experiments, in order to verify the hBLECs’ monolayer integrity and stability, the permeability parameters were verified as previously reported. Briefly, 1.5 mL Ringer–Hepes solution (RH) (150 mM NaCl, 5.2 mM KCl, 2.2 mM CaCl2, 0.2 mM MgCl26H2O, 6 mM NaHCO3, 5 mM HEPES, pH: 7.4) was added to empty wells of a 12-well plate. Filter insert containing confluent monolayers of hBLECs or not (control) were subsequently placed in the 12-well plate, filled with 0.5 mL RH buffer containing the fluorescent integrity marker LY (50 μM), and then placed on an orbital shaker (150 rpm, Heidolph Titramax 100) at 37 °C in a humidify atmosphere of 95% air/5% CO2. Every 20 min for 1 h, filter inserts were withdrawn from the receiver compartment and placed in the next one. To verify the quantity of LY, at the end of the experiments, aliquots from the donor solution were taken at the end of the experiments and the fluorescence was quantified using a quantification curve of LY as referee. At least three inserts with cells and three without cells were tested in each permeability measurement. The fluorescence was measured using a luminescence spectrometer (LS 50B, Perkin Elmer), using the following excitation/emission wavelength (nm) settings: 432/538. Pe parameters were calculated according to the formulas shown in the Supplementary Information (Equations (7)–(10)). In parallel, as positive control for breakdown of hBLECs, D-mannitol, was used at a concentration of 1.4 M. At this concentration, mannitol induces an osmotic shock, and thus an increase in paracellular permeability.
To evaluate the toxicity of GM1 and OligoGM1, the LY endothelial permeability (Pe) and apparent permeability (Papp) were considered for evaluation of hBLEC monolayer integrity after administration of compounds.
To examine the LY permeability, 1.5 mL of RH buffer was added to empty wells of a 12-well plate, then hBLEC filters were placed in the 12-well plate and filled with 0.5 mL RH buffer containing 50 μΜ LY plus OligoGM1 or GM1 at an appropriate test concentration (from 5 to 300 μΜ). The hBLEC inserts were moved every 20 min to a new RH-filled well up to 60 min. At the end of the incubation period, solutions were collected from apical and basolateral compartments, LY was quantified, and Papp was calculated as reported in the Supplementary Information (Equation (1)) and previously mentioned.

CC(=O)NC1C(O)CC(OC2C(O)C(OC3C(CO)OC(O)C(O)C3O)OC(CO)C2OC2OC(CO)C(O)C(OC3OC(CO)C(O)C(O)C3O)C2NC(C)=O)(C(=O)O)OC1C(O)C(O)CO (stereo not drawn) [OligoGM1, β-Gal-(1-3)-β-GalNAc-(1-4)-[α-Neu5Ac-(2-3)]-β-Gal-(1-4)-β-Glc]
concentration in receiving compartment [1]: ~ 25 μM
share of administered amount in receiving compartment ([1]; Transfectagro medium): 25%
TrkA-ERK1/2 pathway (pTrkA, pERK1/2) [2]: activation of the TrkA-ERK1/2 pathway
effect on efflux (Kout) of CMFDA [3]: did not identify any difference
effect on LY Pe and Papp (toxicity to hBLECs) [4]: no variations of LY Pe and Papp were observed
